# Results reported in patent US7628987B2, “Vectors derived from antibodies for transferring substances into cells” (Institut Pasteur, priority 1997, dated 2009).
# System: CCL39 cells
# Assay: Polyfection in the presence of glycerol, CCL39 cells
# Type: cell-based, hamster
# Settings: glycerol 0.23 M, charge ratio 2.2, 5 h30
# Description: Further, by way of comparison, transfection was carried out in the presence of polyethylene […] (PEI), 25 kDa (Aldrich, St Louis, Mo.) in a charge ratio of 2.2 in the presence of glycerol and 5 in the absence of glycerol.
compound,measurement,value
OCC(O)CO [glycerol],increase in polyfection (luciferase activity) induced by glycerol,38 factor
